Source: publication PMC6832265 (Molecules, 2019)

Legend:
Tdp1 = target: T1, Tdp1 (Homo sapiens, UniProt Q9NUW8); test: Real-time detection of Tdp1 activity (5'-FAM/3'-BHQ1 oligonucleotide biosensor); assay type: biochemical; conditions: 1.5 nM Tdp1, 50 nM oligonucleotide substrate, 26 °C
T1 construct: made in house; host or cells: Escherichia coli
Excerpt: We first studied the inhibition potency of our compounds to Tdp1 by using a real-time oligonucleotide biosensor assay that we have previously developed. The assay was based on the ability of Tdp1 to remove the fluorescence quencher from the 3’-end of DNA. The substrate is a 16-mer single-stranded oligonucleotide containing both a 5’-FAM fluorophore and a 3’-BHQ1 quencher.
A fluorophore quencher-coupled DNA-biosensor for real-time measurement of Tdp1 cleavage activity was recently designed in our laboratory. The biosensor is a 16-mer single-stranded oligonucleotide containing both a 5’-FAM fluorophore donor and a quenching 3’-BHQ1 moiety.
Recombinant protein Tdp1 was expressed in EsCherichia coli (pET 16B plasmid containing Tdp1 cDNA provided by Dr. K.W. Caldecott, University of Sussex, United Kingdom) and isolated as described. The reaction mixture in a final volume 200 μL contained Tdp1 reaction buffer (50 mM Tris-HCl, 50 mM NaCl, 7 mM β-mercaptoethanol), 50 nM oligonucleotide substrate, and varied concentrations of potential inhibitor. Purified Tdp1 was added in a final concentration of 1.5 nM.
The reaction mixtures were incubated at a constant temperature of 26 °C in a POLARstar OPTIMA fluorimeter, BMG LABTECH, GmbH, to measure fluorescence intensity every minute (Ex485/Em520 nm). Tdp1 inhibition was calculated by comparing the rate of increase in fluorescence of the biosensor in the presence of the compound to that of DMSO (1.5%) control wells. The measurements were carried out in at least two independent experiments. IC50 values were determined using a six-point concentration response curve. The data were imported into the MARS Data Analysis 2.0 program (BMG LABTECH) and the slope during the linear phase (data from 0 to 7 min) was calculated.

[1] = target: T2, recombinant Tdp1 (residues 149–608) (Homo sapiens, UniProt Q9NUW8); test: Intrinsic tryptophan fluorescence quenching binding assay; conditions: 10 µM Tdp1, 20 mM Tris, 250 mM NaCl, pH 8; triplicate
T2 construct: recombinant Tdp1 (residues 149–608) was obtained from GenScript; host or cells: E. coli BL21(DE3)
Method: The binding of the synthesized compounds to recombinant Tdp1 was also tested (Table 1 and Table 2) by using an intrinsic tryptophan fluorescence quenching assay. […] As our compounds are aromatic in nature, there is a possibility that they may bind to both the active site as well as non-specifically to the DNA/peptide binding pockets. Nonetheless, our results confirmed that the compounds were indeed binders of Tdp1, thus complementing our inhibition data.
pET-28a(+) plasmid encoding recombinant Tdp1 (residues 149–608) was obtained from GenScript. E. coli BL21(DE3) was used for recombinant protein production. Protein production was induced with 1 mM IPTG at 28 °C with overnight incubation. Tdp1 was purified using affinity and size exclusion chromatography. Fluorescence was measured using a PerkinElmer EnSpire Multimode Reader. Tdp1 concentration was 10 μM with varying compound concentrations. The buffer was 20 mM Tris and 250 mM NaCl (pH 8). The excitation wavelength was 280 nm and intrinsic fluorescence was measured at 350 nm. Control experiments with Tdp1 or the compound on its own were also conducted. Background fluorescence arising from the compounds was subtracted from the final spectrum. The total volume per well was 30 μL. The dissociation constant (KD) was calculated using Equation (1), which takes non-specific binding into account. y = Bmaxx/(KD + x) + Nsx(1) where y denotes the changes in fluorescence intensity; x denotes the concentration of the compounds; Bmax denotes the maximum changes in fluorescence intensity; and Ns is a scaling factor for non-specific binding. Experiments were conducted in triplicate.

T1 sequence (Q9NUW8 whole entry): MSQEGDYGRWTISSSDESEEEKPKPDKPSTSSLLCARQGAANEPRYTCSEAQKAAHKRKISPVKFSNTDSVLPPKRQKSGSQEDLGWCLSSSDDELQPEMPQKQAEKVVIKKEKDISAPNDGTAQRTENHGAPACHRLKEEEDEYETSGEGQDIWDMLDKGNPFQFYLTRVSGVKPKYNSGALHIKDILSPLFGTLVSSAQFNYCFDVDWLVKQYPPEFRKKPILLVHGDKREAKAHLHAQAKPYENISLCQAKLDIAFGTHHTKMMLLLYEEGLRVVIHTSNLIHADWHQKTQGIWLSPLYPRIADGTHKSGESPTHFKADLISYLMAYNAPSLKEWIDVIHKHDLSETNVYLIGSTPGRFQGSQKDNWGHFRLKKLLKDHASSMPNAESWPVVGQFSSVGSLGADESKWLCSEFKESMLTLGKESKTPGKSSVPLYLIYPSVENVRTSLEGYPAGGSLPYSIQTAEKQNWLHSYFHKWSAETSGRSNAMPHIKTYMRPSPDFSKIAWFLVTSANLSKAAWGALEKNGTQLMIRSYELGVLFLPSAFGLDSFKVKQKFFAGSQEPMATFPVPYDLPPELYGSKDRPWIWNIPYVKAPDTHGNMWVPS
T2 sequence (Q9NUW8 149-608): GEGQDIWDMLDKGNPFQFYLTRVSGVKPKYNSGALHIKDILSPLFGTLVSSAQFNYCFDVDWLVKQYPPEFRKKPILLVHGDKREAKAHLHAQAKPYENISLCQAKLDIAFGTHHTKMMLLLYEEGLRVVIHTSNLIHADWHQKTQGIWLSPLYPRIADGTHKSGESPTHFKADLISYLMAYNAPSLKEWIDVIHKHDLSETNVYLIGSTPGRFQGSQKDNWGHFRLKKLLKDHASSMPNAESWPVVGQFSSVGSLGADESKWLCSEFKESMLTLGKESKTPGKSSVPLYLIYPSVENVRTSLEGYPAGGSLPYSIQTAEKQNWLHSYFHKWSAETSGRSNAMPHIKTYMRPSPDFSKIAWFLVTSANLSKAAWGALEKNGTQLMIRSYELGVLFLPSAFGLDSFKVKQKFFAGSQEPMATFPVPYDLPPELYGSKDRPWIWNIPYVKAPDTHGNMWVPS

IC50 (Tdp1) [µM]	Kd [1] [µM]	Molecule
0.074 ± 0.001	188 ± 22	COc1ccc(/C=N/Nc2nc(-c3c(O)c(C)c(O)c4c3OC3=CC(O)=C(C(C)=O)C(=O)[C@@]34C)cs2)cc1COc1ccc(Cl)c(C)c1 [(+)-17h, (2R)-4-Acetyl-10-{2-[(E)-2-({3-[(4-chloro-3-methylphenoxy)methyl]-4-methoxyphenyl}methylidene)hydrazin-1-yl]-1,3-thiazol-4-yl}-5,11,13-trihydroxy-2,12-dimethyl-8-oxatricyclo[7.4.0.0^2,7]trideca-1(9),4,6,10,12-pentaen-3-one]
0.08 ± 0.007	161 ± 22	COc1ccc(/C=N/Nc2nc(-c3c(O)c(C)c(O)c4c3OC3=CC(O)=C(C(C)=O)C(=O)[C@@]34C)cs2)cc1CN1CCN(c2ccc(F)cc2)CC1 [(+)-17i, (2R)-4-Acetyl-10-{2-[(E)-2-[(3-{[4-(4-fluorophenyl)piperazin-1-yl]methyl}-4-methoxyphenyl)methylidene]hydrazin-1-yl]-1,3-thiazol-4-yl}-5,11,13-trihydroxy-2,12-dimethyl-8-oxatricyclo[7.4.0.0^2,7]trideca-1(9),4,6,10,12-pentaen-3-one]
0.054 ± 0.008	156 ± 8	COc1ccc(/C=N/Nc2nc(-c3c(O)c(C)c(O)c4c3OC3=CC(O)=C(C(C)=O)C(=O)[C@@]34C)cs2)cc1Cn1nc(C)c([N+](=O)[O-])c1C [(+)-17k, (2R)-4-Acetyl-10-{2-[(E)-2-({3-[(3,5-dimethyl-4-nitro-1H-pyrazol-1-yl)methyl]-4-methoxyphenyl}methylidene)hydrazin-1-yl]-1,3-thiazol-4-yl}-5,11,13-trihydroxy-2,12-dimethyl-8-oxatricyclo[7.4.0.0^2,7]trideca-1(9),4,6,10,12-pentaen-3-one]
0.154 ± 0.018	262 ± 25	CC(=O)C1=C(O)C=C2Oc3c(-c4csc(N/N=C/c5cccnc5)n4)c(O)c(C)c(O)c3[C@]2(C)C1=O [(−)-16c, 3-[(1E)-(2-{4-[(1S)-12-Acetyl-3,5,11-trihydroxy-1,4-dimethyl-13-oxo-8-oxatricyclo[7.4.0.0^2,7]trideca-2(7),3,5,9,11-pentaen-6-yl]-1,3-thiazol-2-yl}hydrazin-1-ylidene)methyl]pyridin-1-ium bromide]
0.169 ± 0.006	281 ± 25	CC(=O)C1=C(O)C=C2Oc3c(-c4csc(N/N=C/c5cccs5)n4)c(O)c(C)c(O)c3[C@]2(C)C1=O [(−)-16g, (2S)-4-Acetyl-5,11,13-trihydroxy-2,12-dimethyl-10-{2-[(E)-2-[(thiophen-2-yl)methylidene]hydrazin-1-yl]-1,3-thiazol-4-yl}-8-oxatricyclo[7.4.0.0^2,7]trideca-1(9),4,6,10,12-pentaen-3-one]
0.056 ± 0.004	355 ± 50	CC(=O)C1=C(O)C=C2Oc3c(-c4csc(N/N=C/c5cc(Br)cs5)n4)c(O)c(C)c(O)c3[C@]2(C)C1=O [(−)-16h, (2S)-4-Acetyl-5,11,13-trihydroxy-2,12-dimethyl-10-{2-[(E)-2-[(4-bromothiophen-2-yl)methylidene]hydrazin-1-yl]-1,3-thiazol-4-yl}-8-oxatricyclo[7.4.0.0^2,7]trideca-1(9),4,6,10,12-pentaen-3-one]
0.046 ± 0.024	250 ± 24	CC(=O)C1=C(O)C=C2Oc3c(-c4csc(N/N=C/c5ccco5)n4)c(O)c(C)c(O)c3[C@]2(C)C1=O [(−)-16k, (2S)-4-Acetyl-5,11,13-trihydroxy-2,12-dimethyl-10-{2-[(E)-2-[(furan-2-yl)methylidene] hydrazin-1-yl]-1,3-thiazol-4-yl}-8-oxatricyclo[7.4.0.0^2,7]trideca-1(9),4,6,10,12-pentaen-3-one]
0.178 ± 0.004	233 ± 9	CC(=O)C1=C(O)C=C2Oc3c(-c4csc(N/N=C/c5ccoc5)n4)c(O)c(C)c(O)c3[C@]2(C)C1=O [(−)-16l, (2S)-4-Acetyl-5,11,13-trihydroxy-2,12-dimethyl-10-{2-[(E)-2-[(furan-3-yl)methylidene] hydrazin-1-yl]-1,3-thiazol-4-yl}-8-oxatricyclo[7.4.0.0^2,7]trideca-1(9),4,6,10,12-pentaen-3-one]
0.018 ± 0.001	354 ± 40	CC(=O)C1=C(O)C=C2Oc3c(-c4csc(N/N=C/c5ccc[nH]5)n4)c(O)c(C)c(O)c3[C@]2(C)C1=O [(−)-16m, (2S)-4-Acetyl-5,11,13-trihydroxy-2,12-dimethyl-10-{2-[(E)-2-[(1H-pyrrol-2-yl)methylidene] hydrazin-1-yl]-1,3-thiazol-4-yl}-8-oxatricyclo[7.4.0.0^2,7]trideca-1(9),4,6,10,12-pentaen-3-one]
0.57 ± 0.109	51 ± 4	CC(=O)C1=C(O)C=C2Oc3c(-c4csc(N/N=C/c5cnc[nH]5)n4)c(O)c(C)c(O)c3[C@]2(C)C1=O [(−)-16o, 5-[(1E)-(2-{4-[(1S)-12-Acetyl-3,5,11-trihydroxy-1,4-dimethyl-13-oxo-8-oxatricyclo[7.4.0.0^2,7]trideca-2(7),3,5,9,11-pentaen-6-yl]-1,3-thiazol-2-yl}hydrazin-1-ylidene)methyl]-1H-imidazol-1-ium bromide]
0.037 ± 0.01	74 ± 4	COc1ccc(/C=N/Nc2nc(-c3c(O)c(C)c(O)c4c3OC3=CC(O)=C(C(C)=O)C(=O)[C@]34C)cs2)cc1COc1ccccc1F [(−)-17c, (2S)-4-Acetyl-10-{2-[(E)-2-({3-[(2-fluorophenoxy)methyl]-4-methoxyphenyl}methylidene)hydrazin-1-yl]-1,3-thiazol-4-yl}-5,11,13-trihydroxy-2,12-dimethyl-8-oxatricyclo[7.4.0.0^2,7]trideca-1(9),4,6,10,12-pentaen-3-one]
0.018 ± 0.001	76 ± 5	COc1ccc(/C=N/Nc2nc(-c3c(O)c(C)c(O)c4c3OC3=CC(O)=C(C(C)=O)C(=O)[C@]34C)cs2)cc1COc1ccc(F)c(Cl)c1 [(−)-17d, (2S)-4-Acetyl-10-{2-[(E)-2-({3-[(3-chloro-4-fluorophenoxy)methyl]-4-methoxyphenyl}methylidene)hydrazin-1-yl]-1,3-thiazol-4-yl}-5,11,13-trihydroxy-2,12-dimethyl-8-oxatricyclo[7.4.0.0^2,7]trideca-1(9),4,6,10,12-pentaen-3-one]
0.046 ± 0.005	142 ± 11	COc1ccc(/C=N/Nc2nc(-c3c(O)c(C)c(O)c4c3OC3=CC(O)=C(C(C)=O)C(=O)[C@]34C)cs2)cc1Cn1nc(C)c([N+](=O)[O-])c1C [(−)-17k, (2S)-4-Acetyl-10-{2-[(E)-2-({3-[(3,5-dimethyl-4-nitro-1H-pyrazol-1-yl)methyl]-4-methoxyphenyl}methylidene)hydrazin-1-yl]-1,3-thiazol-4-yl}-5,11,13-trihydroxy-2,12-dimethyl-8-oxatricyclo[7.4.0.0^2,7]trideca-1(9),4,6,10,12-pentaen-3-one]
0.107 ± 0.031	65 ± 7	(2R)-4-Acetyl-5,11,13-trihydroxy-2,12-dimethyl-10-{2-[(E)-2-[(thiophen-3-yl)methylidene] hydrazin-1-yl]-1,3-thiazol-4-yl}-8-oxatricyclo[7.4.0.0^2,7]trideca-1(9),4,6,10,12-pentaen-3-one amine [(+)-16j]
0.064 ± 0.006	213 ± 4	(2R)-4-Acetyl-10-{2-[(E)-2-({3-[(3,4-difluorophenoxy)methyl]-4-methoxyphenyl}methylidene)hydrazin-1-yl]-1,3-thiazol-4-yl}-5,11,13-trihydroxy-2,12-dimethyl-8-oxatricyclo[7.4.0.0^2,7]trideca-1(9),4,6,10,12-pentaen-3-one [(+)-17e]
0.081 ± 0.02	58 ± 4	(2S)-4-Acetyl-5,11,13-trihydroxy-2,12-dimethyl-10-{2-[(E)-2-[(1H-3-methyl-indole-3-yl) methylidene]hydrazin-1-yl]-1,3-thiazol-4-yl}-8-oxatricyclo[7.4.0.0^2,7]trideca-1(9),4,6,10,12-pentaen-3-one [(−)-16q]
